Source: article PMC11134331, “Cell-active small molecule inhibitors validate the SNM1A DNA repair nuclease as a cancer target” (Chemical Science, 2024)

Tests used:
[1] = test system: γH2AX foci in RPE-1 cells; experiment: microscopic analysis of damage-induced subnuclear foci, RPE-1 cells; assay type: cell-based, human; conditions: RPE-1, cisplatin treated, without 19
Description: (§1) To assess the number of nuclear foci following cisplatin/inhibitor treatments, cells were plated in glass bottom dishes (as above) and allowed to attach. Following treatment, cells were fixed with 4% (v/v) formaldehyde in PBS, blocked with immunofluoresence (IF) blocking buffer (5% horse serum, 1% saponin in PBS) for 1 h, then incubated with primary antibodies at the desired concentrations in IF blocking buffer (overnight, 4 °C).
Images were imported into ImageJ and foci were counted using a macro adjusting for staining levels between experiments. Anti-γH2AX antibodies were a mouse monoclonal (Millipore; JBW301).

[2] = test system: γH2AX and EGFP-SNM1A foci in U2OS cells; experiment: microscopic analysis of damage-induced subnuclear foci, U2OS cells expressing EGFP-SNM1A; assay type: cell-based, human; conditions: U2OS, cisplatin treated, without 19
Description: To this end, cells stably expressing N-terminally EGFP-tagged SNM1A (EGFP-SNM1A) were treated with 50 μM cisplatin alone, 19 (50 μM), or with a combination of both compounds. It is known that on treatment of cells with DNA crosslinking agents, SNM1A forms subnuclear foci that are associated with ongoing sites of DNA repair.[37] […] As previously established, cisplatin treatment efficiently induces co-localisation of EGFP-SNM1A foci and γH2AX foci within 4 hours following treatment, marking sites of cisplatin damage and its repair (Fig. 6C–E). These largely resolved 24 hours post-treatment, again consistent with previous studies.[16,37] Co-treatment of cells with 19 and cisplatin saw a robust induction of SNM1A foci, consistent with the SNM1A activity being dispensable for its localisation to sites of crosslink repair, and γH2AX foci formation (Fig. 6C–E). […] This clear persistence of repair intermediates and trapping of EGFP-SNM1A at the sites of these repair intermediate implies that 19 engages with SNM1A in a cellular context, delaying the completion of cisplatin crosslink repair, which, in turn, results in the sensitisation of cells to cisplatin.
as §1, with “°C). After washing cells three times with PBS, cells were incubated with secondary antibodies for 2–4 hours in IF blocking buffer, washed a further 3 times with PBS then stained with Hoechst 333 258 (1 μg mL^−1 in PBS) for 30 minutes before a further three washes (all washes and incubations were performed at room temperature, unless otherwise stated).” for “°C).”
Confocal images were obtained with a Plan APO 63X 1.40NA oil immersion objective, a pinhole setting of 1 AU, bandpass emission settings of 410–468 nm for Hoechst, 490–544 nm for EGFP, 579–624 nm for RFP or Alexa 568, and 633–695 nm for Alexa 647, a projected pixel dimension of around 110 nm × 110 nm, a pixel dwell time of 1.35 μs, and with a line averaging setting of 2. In order to ensure sufficient cell numbers (N > 300), images were acquired in a tiled 5 × 5 format corresponding to an image area of about 0.65 mm × 0.65 mm. Images were imported into ImageJ and foci were counted using a macro adjusting for staining levels between experiments. Anti-γH2AX antibodies were a mouse monoclonal (Millipore; JBW301).

SNM1C [3] = biological target: T1, SNM1C (Homo sapiens, UniProt Q96SD1); experiment: real-time fluorescence-based nuclease assay, SNM1C; assay type: biochemical; conditions: real-time fluorescence-based nuclease assay
T1 construct: for the MBL and β-CASP domains of SNM1C (aa 1–362) into the baculovirus expression vector pBF-6HZB; made in house; host or cells: Sf9 insect cells (baculovirus)
T1 sequence (Q96SD1 1-362): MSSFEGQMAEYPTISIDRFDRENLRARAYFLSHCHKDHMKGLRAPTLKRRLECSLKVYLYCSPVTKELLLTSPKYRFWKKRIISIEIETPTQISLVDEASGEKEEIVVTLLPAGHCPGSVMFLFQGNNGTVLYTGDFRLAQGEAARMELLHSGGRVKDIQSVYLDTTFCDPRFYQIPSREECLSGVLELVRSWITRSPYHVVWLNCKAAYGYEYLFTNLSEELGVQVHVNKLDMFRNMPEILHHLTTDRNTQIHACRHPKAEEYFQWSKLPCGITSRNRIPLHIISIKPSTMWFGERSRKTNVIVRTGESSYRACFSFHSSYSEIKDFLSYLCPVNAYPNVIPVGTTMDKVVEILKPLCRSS
Text: There is structural similarity between SNM1A, SNM1B, and SNM1C and major mechanistic features are likely conserved between the three nucleases. We therefore tested (13) and other hydroxamic acid analogues for inhibition of SNM1B and SNM1C. […] Note that the substrate utilised for the high-throughput fluorescence based and subsequent SNM1A and SNM1B assays differed slightly for SNM1C reflecting its (primarily) endonucleolytic, rather than exonucleolytic, activity (ESI Fig. 9 ^†).
(§2) Fluorescence-based nuclease digestion SNM1A–C assays were performed as described.[30,45] In the case of SNM1A and SNM1B, a 20-mer oligonucleotide with a 5′ FITC-conjugated-T and an internal BHQ-1 (black hole quencher) conjugated-T, eight nucleotides distal (3′) to the fluor was utilised; whereas for SNM1C a 20-mer oligonucleotide with a 5′ FITC-conjugated-T and a 3′ BHQ-1(black hole quencher) was used to capture all possible endonucleolytic incisions. Reactions (25 μL) were performed in 384 well microplates in nuclease buffer (20 mM HEPES-KOH pH 7.5, 50 mM KCl, 10 mM MgCl2, 0.5 mM TCEP, 0.05% (v/v) Triton-X, 0.1 mg mL^−1 BSA, 5% (v/v) glycerol) with SNM1A/B/C (0.1 nM SNM1A, 0.5 nM SNM1B and 1 nM SNM1C) as indicated. Proteins were incubated for 10 min at RT with the stated compound where applicable, before the reaction was initiated with the addition of 10 nM DNA substrate. […] Fluorescence spectra were measured every 140 s, for 35 min, at 37 °C. The fluorescence intensity of each well was plotted against compound concentration and fitted using a log (inhibitor) response curve using GraphPad Prism software (GraphPad Software, Inc., La Jolla, CA, USA).

SNM1A [4] = biological target: T2, SNM1A (Homo sapiens, UniProt Q6PJP8); experiment: real-time fluorescence-based nuclease assay, SNM1A; assay type: biochemical; design: DNA encoding for the MBL and β-CASP domains of SNM1A (aa 676–1040) was cloned into the baculovirus transfer vector pFB-LIC-Bse; inferred from vector pFB-LIC-Bse and the IMAC purification; made in house; host or cells: Sf9 insect cells (baculovirus); conditions: resynthesised compounds
T2 sequence (Q6PJP8 676-1040): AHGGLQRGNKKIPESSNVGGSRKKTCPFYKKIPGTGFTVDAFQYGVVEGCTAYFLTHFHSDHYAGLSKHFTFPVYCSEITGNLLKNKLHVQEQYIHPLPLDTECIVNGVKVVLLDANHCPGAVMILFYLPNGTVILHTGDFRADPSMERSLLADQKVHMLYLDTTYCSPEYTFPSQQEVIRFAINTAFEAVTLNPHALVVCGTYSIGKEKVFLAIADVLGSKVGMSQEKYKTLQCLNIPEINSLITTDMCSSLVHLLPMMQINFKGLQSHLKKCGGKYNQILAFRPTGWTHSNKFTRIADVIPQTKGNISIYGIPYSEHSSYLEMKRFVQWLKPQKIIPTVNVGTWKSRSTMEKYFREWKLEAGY
Description: (§3) In brief, the fluorescence-based nuclease assay utilises a chemically modified 20-nucleotide ssDNA substrate with a fluorescein isothiocyanate (FITC) derived 5′-group and an internal black-hole-quencher-1 (BHQ-1), located eight nucleotides distal to the fluorescein group. In the intact substrate the BHQ-1 suppresses fluorescence, however, exonucleolytic digestion of the substrate from the 5′ end by SNM1A uncouples the BHQ-1 and FITC moieties (see Fig. 1D). Spectra were measured every 140 seconds with an increase in fluorescence indicating enzymatic activity by SNM1A (concentration: 0.1 nM).
as §2

SNM1B = biological target: T3, SNM1B (Homo sapiens, UniProt Q9H816); experiment: real-time fluorescence-based nuclease assay, SNM1B; assay type: biochemical
T3 construct: for the MBL and β-CASP domains of SNM1B (aa 1–335) into baculoviral expression vectors pFB-CT10HF-LIC; made in house; host or cells: Sf9 insect cells (baculovirus)
T3 sequence (Q9H816 1-335): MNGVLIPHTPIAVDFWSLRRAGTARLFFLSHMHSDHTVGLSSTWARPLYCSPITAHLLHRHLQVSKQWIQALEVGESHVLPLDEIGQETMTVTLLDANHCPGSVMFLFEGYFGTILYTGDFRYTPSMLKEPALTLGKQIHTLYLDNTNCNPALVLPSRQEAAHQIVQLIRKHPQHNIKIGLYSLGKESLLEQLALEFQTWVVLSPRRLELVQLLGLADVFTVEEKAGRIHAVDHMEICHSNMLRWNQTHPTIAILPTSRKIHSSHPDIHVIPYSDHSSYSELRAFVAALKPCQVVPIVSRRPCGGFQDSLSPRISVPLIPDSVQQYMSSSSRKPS
Description: There is structural similarity between SNM1A, SNM1B, and SNM1C and major mechanistic features are likely conserved between the three nucleases. We therefore tested (13) and other hydroxamic acid analogues for inhibition of SNM1B and SNM1C. Due to differences in catalytic turnover between the three enzymes, different concentrations of SNM1B (1 nM) and SNM1C (2.5 nM) were used compared to that for SNM1A (0.5 nM) in the assays. Note that the substrate utilised for the high-throughput fluorescence based and subsequent SNM1A and SNM1B assays differed slightly for SNM1C reflecting its (primarily) endonucleolytic, rather than exonucleolytic, activity (ESI Fig. 9 ^†).
Fluorescence-based nuclease digestion SNM1A–C assays were performed as described.[30,45] […] Fluorescence was measured using a PHERAstar FSX fluorescent plate reader in fluorescent top read mode using excitation at 495 nm, emission at 525 nm, and cutoff at […]. Fluorescence spectra were measured every 140 s, for 35 min, at 37 °C. The fluorescence intensity of each well was plotted against compound concentration and fitted using a log (inhibitor) response curve using GraphPad Prism software (GraphPad Software, Inc., La Jolla, CA, USA).

solubility = assay type: physicochemical
SNM1A [5] = biological target: T2, SNM1A; design: DNA encoding for the MBL and β-CASP domains of SNM1A (aa 676–1040) was cloned into the baculovirus transfer vector pFB-LIC-Bse; inferred from vector pFB-LIC-Bse and the IMAC purification; made in house; host or cells: Sf9 insect cells (baculovirus); conditions: cited from earlier work
SNM1C [6] = biological target: T1, SNM1C; conditions: cited from earlier work
SNM1A [7] = biological target: T2, SNM1A; experiment: biochemical
Description: as §3

[8] = real-time fluorescence-based nuclease assay, read-out: SNM1A IC50

N.N.[Cl][Pt][Cl] [cisplatin, reference compound]
average γH2AX foci count at 24 hours [1]: 10.4 ± 0.3 foci | average number of γH2AX foci at 24 hours [2]: 21.5 ± 0.5 foci

COc1ccc2c3c(cccc13)C(=O)N(O)C2=O [compound 1]
IC50 (SNM1C [3]): 0.37 µM | IC50 (SNM1A [4]; [8]): 2.4 µM | IC50 (SNM1B): 1.9 µM | solubility (solubility): poor solubility

CO/N=C(\C(=O)N[C@@H]1C(=O)N2C(C(=O)O)=C(CSc3nc(=O)c(=O)[nH]n3C)CS[C@H]12)c1csc(N)n1 [compound 5, ceftriaxone]
inhibition of SNM1A (potency in words) (SNM1A [5]): low μM potency | inhibition of SNM1C (potency in words) (SNM1C [6]): low μM potency

C=CCNc1nc(N[C@@H](CC(C)C)C(=O)O)c2cc(Cl)ccc2n1 [compound 6]
IC50 (SNM1A [4]; SNM1A IC50, real-time fluorescence-based nuclease assay): 129 µM | IC50 (SNM1A [4]; [8]): 110 µM | IC50 (SNM1A [7]): 17.4 µM
